Data taken from ChEMBL document CHEMBL1157463, “Interaction of methimazole with I2: X-ray crystal structure of the charge transfer complex methimazole-I2. implications for the mechanism of action of methimazole-based antithyroid drugs” (J Med Chem, 2008).
pIC50: −log10 of the molar value.

Assay: Antioxidant activity assessed as inhibition of lactoperoxidase-catalyzed oxidation of 2,2'-azinobis([…])
Type: functional

pIC50 | SMILES
5.85 | Cn1cc[nH][c+]1SS[c+]1[nH]ccn1C.[O-][Cl+3]([O-])([O-])[O-].[O-][Cl+3]([O-])([O-])[O-]
5.25 | Cn1ccnc1S [METHIMAZOLE]
